Assay results from PubChem BioAssay (NCI).
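Five concentrations, 48 hours, 96-well plates. TGI marks complete inhibition of growth.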

Tests used:
Assay in all cases: DTP human tumour cell line panel, 48 h
SNB-19 CNS = test system: SNB-19 CNS
SK-OV-3 ovarian = test system: SK-OV-3 ovarian
OVCAR-3 ovarian = test system: OVCAR-3 ovarian
UO-31 renal = test system: UO-31 renal
CAKI-1 renal = test system: CAKI-1 renal
TK-10 renal = test system: TK-10 renal
NCI/ADR-RES ovarian = test system: NCI/ADR-RES ovarian
UACC-257 melanoma = test system: UACC-257 melanoma
A498 renal = test system: A498 renal
RPMI-8226 leukemia = test system: RPMI-8226 leukemia
LOX IMVI melanoma = test system: LOX IMVI melanoma
U251 CNS = test system: U251 CNS
T-47D breast = test system: T-47D breast
MOLT-4 leukemia = test system: MOLT-4 leukemia
SK-MEL-28 melanoma = test system: SK-MEL-28 melanoma
SF-295 CNS = test system: SF-295 CNS
MCF7 breast = test system: MCF7 breast
M14 melanoma = test system: M14 melanoma
COLO 205 colon = test system: COLO 205 colon
SW-620 colon = test system: SW-620 colon
MDA-N = test system: MDA-N
RXF 393 renal = test system: RXF 393 renal
OVCAR-8 ovarian = test system: OVCAR-8 ovarian
HCT-116 colon = test system: HCT-116 colon
NCI-H226 lung = test system: NCI-H226 lung
KM12 colon = test system: KM12 colon
HT29 colon = test system: HT29 colon
SNB-75 CNS = test system: SNB-75 CNS
UACC-62 melanoma = test system: UACC-62 melanoma
786-0 renal = test system: 786-0 renal
CCRF-CEM leukemia = test system: CCRF-CEM leukemia
SN12C renal = test system: SN12C renal
PC-3 prostate = test system: PC-3 prostate
BT-549 breast = test system: BT-549 breast
HL-60(TB) leukemia = test system: HL-60(TB) leukemia
HS 578T breast = test system: HS 578T breast
SK-MEL-5 melanoma = test system: SK-MEL-5 melanoma
OVCAR-4 ovarian = test system: OVCAR-4 ovarian
DU-145 prostate = test system: DU-145 prostate
SR leukemia = test system: SR leukemia
HCT-15 colon = test system: HCT-15 colon
IGROV1 ovarian = test system: IGROV1 ovarian
NCI-H23 lung = test system: NCI-H23 lung
MDA-MB-435 = test system: MDA-MB-435
EKVX NSCLC = test system: EKVX NSCLC
OVCAR-5 ovarian = test system: OVCAR-5 ovarian
A549 NSCLC = test system: A549 NSCLC
SF-268 CNS = test system: SF-268 CNS
MDA-MB-231 breast = test system: MDA-MB-231 breast
HOP-62 NSCLC = test system: HOP-62 NSCLC
K-562 leukemia = test system: K-562 leukemia
NCI-H460 lung = test system: NCI-H460 lung
HOP-92 NSCLC = test system: HOP-92 NSCLC
MALME-3M melanoma = test system: MALME-3M melanoma
HCC-2998 colon = test system: HCC-2998 colon
NCI-H522 lung = test system: NCI-H522 lung
SK-MEL-2 melanoma = test system: SK-MEL-2 melanoma

CC(C)=CCC[C@@H](C)C1=C(Nc2ccccc2)C(O)=C(C)C(=O)C1=O
TGI (SNB-19 CNS): 22.8 µM | TGI (SK-OV-3 ovarian): > 36.4 µM | TGI (OVCAR-3 ovarian): 8.97 µM | TGI (UO-31 renal): 15.5 µM | TGI (CAKI-1 renal): 11.8 µM | TGI (TK-10 renal): > 55.1 µM | TGI (NCI/ADR-RES ovarian): 3.96 µM | TGI (UACC-257 melanoma): 41.9 µM | TGI (A498 renal): > 30.4 µM | TGI (RPMI-8226 leukemia): > 100 µM | TGI (LOX IMVI melanoma): 97.1 µM | TGI (U251 CNS): > 56.1 µM | TGI (T-47D breast): 32.3 µM | TGI (MOLT-4 leukemia): > 22.7 µM | TGI (SK-MEL-28 melanoma): 30.9 µM | TGI (SF-295 CNS): 11.1 µM | TGI (MCF7 breast): 22.5 µM | TGI (M14 melanoma): 15.6 µM | TGI (COLO 205 colon): 13.1 µM | TGI (SW-620 colon): > 48 µM | TGI (MDA-N): 54.2 µM | TGI (RXF 393 renal): 21.3 µM | TGI (OVCAR-8 ovarian): 23.5 µM | TGI (HCT-116 colon): 16.9 µM | TGI (NCI-H226 lung): 18.1 µM | TGI (KM12 colon): 20.7 µM | TGI (HT29 colon): 15.3 µM | TGI (SNB-75 CNS): 15.6 µM | TGI (UACC-62 melanoma): 20.7 µM | TGI (786-0 renal): > 48.5 µM | TGI (CCRF-CEM leukemia): 0.874 µM | TGI (SN12C renal): 41.6 µM | TGI (PC-3 prostate): > 40.5 µM | TGI (BT-549 breast): 23.1 µM | TGI (HL-60(TB) leukemia): 1.35 µM | TGI (HS 578T breast): 9.5 µM | TGI (SK-MEL-5 melanoma): 7.97 µM | TGI (OVCAR-4 ovarian): > 43.5 µM | TGI (DU-145 prostate): 28.2 µM | TGI (SR leukemia): 6.08 µM | TGI (HCT-15 colon): 13.4 µM | TGI (IGROV1 ovarian): 17.6 µM | TGI (NCI-H23 lung): 12.9 µM | TGI (MDA-MB-435): > 48.3 µM | TGI (EKVX NSCLC): > 39.4 µM | TGI (OVCAR-5 ovarian): > 43.5 µM | TGI (A549 NSCLC): 13.5 µM | TGI (SF-268 CNS): 25.2 µM | TGI (MDA-MB-231 breast): > 27.4 µM | TGI (HOP-62 NSCLC): 15.6 µM | TGI (K-562 leukemia): > 39.9 µM | TGI (NCI-H460 lung): > 40 µM | TGI (HOP-92 NSCLC): 9.9 µM | TGI (MALME-3M melanoma): 19.9 µM | TGI (HCC-2998 colon): > 41.4 µM | TGI (NCI-H522 lung): 16.5 µM | TGI (SK-MEL-2 melanoma): 19.8 µM
